Measured values published in patent US20260070929A1, “METHODS AND COMPOSITIONS FOR MODULATING KRAS(G12D)” (Ranok Therapeutics (Hangzhou) Co. LTD., priority 2022, published 2026).

Key:
[1] = target: T1, KRAS(G12D)/SOS1 (Homo sapiens, UniProt P01116, G12D); assay: KRAS(G12D)/SOS1 homogeneous time-resolved fluorescence (HTRF) assay; format: binding; conditions: absence of GTP; 4° C., 3 hr
T1 construct: purchased Cisbio 63ADK000CB17PEH
Outline: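 Disruption of the KRAS(G12D)/SOS1 pairing, in the absence of GTP, was read by time-resolved FRET after a 3 hr sealed incubation at 4 °C. Test compounds spanned 20 µM down to 1.02 nM in 3-fold steps. IC50 values correspond to half-maximal inhibition.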

[2] = system: AGS gastric carcinoma cells [heterozygous G12D]; assay: Cancer cell line proliferation (CellTiter-Glo), AGS; format: cell-based; conditions: Homo sapiens, 72 hr treatment, read-out: AGS CTG (EC50)
Outline: (§1)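 A 72 hr proliferation format is used: cells at 4,000/well, pre-grown 72 hr, then treated at 37° C./5% CO2 with 0.5% DMSO final. CellTiter-Glo measures viable cells, from which EC50 is calculated.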

[3] = system: A-427 lung carcinoma cells [heterozygous G12D]; assay: Cancer cell line proliferation (CellTiter-Glo), A-427; format: cell-based; conditions: Homo sapiens, A-427 cells, 72 hr treatment, read-out: A427 CTG (EC50)
Outline: as §1

[4] = system: ASPC1 pancreatic adenocarcinoma cells [homozygous G12D]; assay: Cancer cell line proliferation (CellTiter-Glo), ASPC1; format: cell-based; conditions: Homo sapiens, ASPC1, 72 h, 72 hr treatment, read-out: ASPC-1 CTG (EC50)
Outline: as §1

[5] = system: SW1990 pancreatic adenocarcinoma cells [homozygous G12D]; assay: Cancer cell line proliferation (CellTiter-Glo), SW1990; format: cell-based; conditions: Homo sapiens, 72 hr treatment, read-out: SW1990 CTG (EC50)
Procedure: The following cancer cell lines were employed: AGS gastric carcinoma [heterozygous G12D](ATCC, CRL-1739); A-427 lung carcinoma [heterozygous G12D](ATCC, HTB-53); ASPC1 pancreatic adenocarcinoma [homozygous G12D](ATCC, CRL-1682) and SW1990 pancreatic adenocarcinoma [homozygous G12D](ATCC CRL-2172). Cell lines were cultured essentially according to ATCC recommendations.
AGS, A-427, ASPC1, SW1990, and GP2D cells were plated in 96-well tissue culture plates at 4,000 cells/well and incubated at 37° C./5% CO2 for 72 hr in 100 μl of media. 3-fold serial dilutions of each test compound were prepared ranging from 20 μM to 1.02 nM. Each cell line was then treated with test compounds at various concentrations with a final concentration of 0.5% DMSO/well, and then incubated at 37° C./5% CO2 for 72 hr. 100 µl of CellTiter-Glo® Reagent (Promega Corporation, Madison, WI) was added to each well and processed according manufacturer's protocol. Results were analyzed and EC50 values were calculated in GraphPad 7 software.

T1 sequence (P01116 1-188 isoform P01116-2 G12D): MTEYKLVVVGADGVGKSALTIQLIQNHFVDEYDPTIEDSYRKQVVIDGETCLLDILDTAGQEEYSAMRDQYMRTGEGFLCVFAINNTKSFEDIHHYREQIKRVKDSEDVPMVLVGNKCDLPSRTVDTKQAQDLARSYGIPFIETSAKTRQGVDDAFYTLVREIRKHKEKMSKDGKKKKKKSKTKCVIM

| Compound | IC50 [1] [µM] | EC50 [2] [µM] | EC50 [3] [µM] | EC50 [4] [µM] | EC50 [5] [µM] |
| --- | --- | --- | --- | --- | --- |
| C#Cc1cccc2cc(O)cc(-c3ncc4c(N5CC6CCC(C5)N6)nc(OCC5(CN6CC[C@H](C(=O)N7CCN(Cc8ccc9c(c8)CN(C(=O)c8cc(C(C)C)c(O)cc8O)C9)CC7)C6)CC5)nc4c3F)c12 [Compound 139] | < 0.1 | 0.1 to 1 | 0.1 to 1 | > 1 |  |
| C#Cc1cccc2cc(O)cc(-c3ncc4c(N5CC6CCC(C5)N6)nc(OCC5(CN6CCC(OC7CCN(Cc8ccc(-n9c(C(=O)NC(C)C(F)(F)F)nnc9-c9cc(C(C)C)c(O)cc9O)cc8)CC7)CC6)CC5)nc4c3F)c12 (stereo not shown) [Compound 140] | < 0.1 | < 0.1 | < 0.1 | < 0.1 |  |
| C#Cc1cccc2cc(O)cc(-c3ncc4c(N5CC6CCC(C5)N6)nc(OCC5(CN6CCC(OC7CCN(C(=O)C8CCN(Cc9ccc%10c(c9)CN(C(=O)c9cc(C(C)C)c(O)cc9O)C%10)CC8)CC7)CC6)CC5)nc4c3F)c12 [Compound 141] | < 0.1 | < 0.1 | < 0.1 | 0.1 to 1 |  |
| C#Cc1c(F)ccc2cc(O)cc(-c3ncc4c(N5CC6CCC(C5)N6)nc(OCC5(CN6CCN(C7CN(Cc8ccc(-n9c(C(=O)NC(C)C(F)(F)F)nnc9-c9cc(C(C)C)c(O)cc9O)cc8)C7)CC6)CC5)nc4c3F)c12 (stereo not shown) [Compound 167] | < 0.1 | < 0.1 |  |  | < 0.1 |
| C#Cc1c(F)ccc2cc(O)cc(-c3nc(OC)c4c(N5CC6CCC(C5)N6)nc(OCC5(CN6CCN(CC7CCN(Cc8ccc(-n9c(C(=O)NCC(F)(F)F)nnc9-c9cc(C(C)C)c(O)cc9O)cc8)CC7)CC6)CC5)nc4c3F)c12 [Compound 168] | < 0.1 | < 0.1 |  |  | < 0.1 |
| C#Cc1c(F)ccc2cc(O)cc(-c3nc(OC)c4c(N5CC6CCC(C5)N6)nc(OCC5(CN6CCN(CC7CCN(Cc8ccc(-n9c(C(=O)NCC)nnc9-c9cc(C(C)C)c(O)cc9O)cc8)CC7)CC6)CC5)nc4c3F)c12 [Compound 169] | < 0.1 | < 0.1 |  |  | < 0.1 |
| C#Cc1c(F)ccc2cc(O)cc(-c3nc(OC)c4c(N5CC6CCC(C5)N6)nc(OCC5(CN6CCN(C7CCN(Cc8ccc9c(c8)CN(C(=O)c8cc(O)c(C(C)C)cc8O)C9)CC7)CC6)CC5)nc4c3F)c12 [Compound 170] | < 0.1 | < 0.1 |  |  | < 0.1 |
| C#Cc1c(F)ccc2cc(O)cc(-c3ncc4c(N5CC6CCC(C5)N6)nc(OCC5CN(Cc6ccc7c(c6)CN(C(=O)c6cc(C(C)C)c(O)cc6O)C7)C5)nc4c3F)c12 [Compound 172] | < 0.1 | 0.1 to 1 |  |  | 0.1 to 1 |
| C#Cc1c(F)ccc2cc(O)cc(-c3ncc4c(N5CC6CCC(C5)N6)nc(OCc5ccc6c(c5)CN(C(=O)c5cc(C(C)C)c(O)cc5O)C6)nc4c3F)c12 [Compound 173] | 0.1 to 1 | 0.1 to 1 |  |  | > 1 |
| C#Cc1c(F)ccc2cc(O)cc(-c3ncc4c(N5CC6CCC(C5)N6)nc(OCC5CN(Cc6ccc(-n7c(C(=O)NC(C)C(F)(F)F)nnc7-c7cc(C(C)C)c(O)cc7O)cc6)C5)nc4c3F)c12 (stereo not shown) [Compound 174] | < 0.1 | 0.1 to 1 |  |  | > 1 |
| C#Cc1c(F)ccc2cc(O)cc(-c3ncc4c(N5CC6CCC(C5)N6)nc(OCC5CN(Cc6ccc(-n7c(C(=O)NCC(F)(F)F)nnc7-c7cc(C(C)C)c(O)cc7O)cc6)C5)nc4c3F)c12 [Compound 175] | < 0.1 | 0.1 to 1 |  |  | 0.1 to 1 |
| C#Cc1c(F)ccc2cc(O)cc(-c3ncc4c(N5CC6CCC(C5)N6)nc(OC5CN(Cc6ccc(-n7c(C(=O)NC(C)C(F)(F)F)nnc7-c7cc(C(C)C)c(O)cc7O)cc6)C5)nc4c3F)c12 (stereo not shown) [Compound 176] | 0.1 to 1 | 0.1 to 1 |  |  | > 1 |
| C#Cc1c(F)ccc2cc(O)cc(-c3ncc4c(N5CC6CCC(C5)N6)nc(OCC5(CN6CCN(C7CN(Cc8ccc9c(c8)CN(C(=O)c8cc(C(C)C)c(O)cc8O)C9)C7)CC6)CC5)nc4c3F)c12 [Compound 177] | < 0.1 | < 0.1 |  |  | < 0.1 |
| C#Cc1c(F)ccc2cc(O)cc(-c3nc(OC)c4c(N5CC6CCC(C5)N6)nc(OCC5(CN6CCN(C7CCN(Cc8ccc(-n9c(C(=O)NC(C)C(F)(F)F)nnc9-c9cc(C(C)C)c(O)cc9O)cc8)CC7)CC6)CC5)nc4c3F)c12 (stereo not shown) [Compound 178] | < 0.1 | < 0.1 |  |  | < 0.1 |
| C#Cc1c(F)ccc2cc(O)cc(-c3ncc4c(N5CC6CCC(C5)N6)nc(OC5CN(Cc6ccc(-n7c(C(=O)NCC(F)(F)F)nnc7-c7cc(C(C)C)c(O)cc7O)cc6)C5)nc4c3F)c12 [Compound 179] | 0.1 to 1 | 0.1 to 1 |  |  | > 1 |
| C#Cc1c(F)ccc2cc(O)cc(-c3ncc4c(N5CC6CCC(C5)N6)nc(OCC5(CN6CCC(N7CCN(Cc8ccc9c(c8)CN(C(=O)c8cc(C(C)C)c(O)cc8O)C9)CC7)CC6)CC5)nc4c3F)c12 [Compound 180] | < 0.1 | < 0.1 |  |  | < 0.1 |
| C#Cc1c(F)ccc2cc(O)cc(-c3ncc4c(N5CC6CCC(C5)N6)nc(OCC5(CN6CCC(N7CCN(Cc8ccc(-n9c(C(=O)NC(C)C(F)(F)F)nnc9-c9cc(C(C)C)c(O)cc9O)cc8)CC7)CC6)CC5)nc4c3F)c12 (stereo not shown) [Compound 181] | < 0.1 | < 0.1 |  |  | < 0.1 |
| C#Cc1c(F)ccc2cc(O)cc(-c3nc(OC)c4c(N5CC6CCC(C5)N6)nc(OCC5(CN6CCC(C7CCN(Cc8ccc(-n9c(C(=O)NC(C)C(F)(F)F)nnc9-c9cc(C(C)C)c(O)cc9O)cc8)CC7)CC6)CC5)nc4c3F)c12 (stereo not shown) [Compound 182] | < 0.1 | < 0.1 |  |  | < 0.1 |
| C#Cc1c(F)ccc2cc(O)cc(-c3ncc4c(N5CC6CCC(C5)N6)nc(OCC5(CN6CCC7(CCN(Cc8ccc(-n9c(C(=O)NC(C)C(F)(F)F)nnc9-c9cc(C(C)C)c(O)cc9O)cc8)CC7)CC6)CC5)nc4c3F)c12 (stereo not shown) [Compound 183] | < 0.1 | < 0.1 |  |  | < 0.1 |
| C#Cc1c(F)ccc2cc(O)cc(-c3ncc4c(N5CC6CCC(C5)N6)nc(OCC5(CN6CCC7(CCN(Cc8ccc9c(c8)CN(C(=O)c8cc(C(C)C)c(O)cc8O)C9)CC7)CC6)CC5)nc4c3F)c12 [Compound 184] | < 0.1 | < 0.1 |  |  | < 0.1 |
| C#Cc1c(F)ccc2cc(O)cc(-c3ncc4c(N5CC6CNC(C6)C5)nc(OCC5(CN6CCC(C7CCN(Cc8ccc(-n9c(C(=O)NC(C)C(F)(F)F)nnc9-c9cc(C(C)C)c(O)cc9O)cc8)CC7)CC6)CC5)nc4c3F)c12 (stereo not shown) [Compound 185] | 0.1 to 1 | 0.1 to 1 |  |  | 0.1 to 1 |
| C#Cc1cccc2cc(O)cc(-c3ncc4c(N5CC6CCC(C5)N6)nc(OCC5(CN6CCN(CC7CCN(Cc8ccc(-n9c(C(=O)NCC)nnc9-c9cc(C(C)C)c(OC)cc9OC)cc8)CC7)CC6)CC5)nc4c3F)c12 [Compound 195] |  | 0.1 to 1 |  |  | 0.1 to 1 |
| C#Cc1cccc2cc(O)cc(-c3ncc4c(N5CC6CNC(C6)C5)nc(OCC5(CN6CCN(CC7CCN(Cc8ccc(-n9c(C(=O)NCC)nnc9-c9cc(C(C)C)c(O)cc9O)cc8)CC7)CC6)CC5)nc4c3F)c12 (stereo not shown) [Compound 197] |  | < 0.1 |  |  | 0.1 to 1 |
| C#Cc1c(F)ccc2cc(O)cc(-c3ncc4c(N5CC6CCC(C5)N6)nc(OCC5(CN6CCC(C7CCN(Cc8ccc9c(c8)CN(C(=O)c8cc(C(C)C)c(OC)cc8OC)C9)CC7)CC6)CC5)nc4c3F)c12 [Compound 199] |  | 0.1 to 1 |  |  | 0.1 to 1 |
| C#Cc1c(F)ccc2cc(O)cc(-c3ncc4c(N5CC6CCC(C5)N6)nc(OCC5(CN6CCN(C7CCN(Cc8ccc(-n9c(C(=O)NC(C)C(F)(F)F)nnc9-c9cc(C(C)C)c(OC)cc9OC)cc8)CC7)CC6)CC5)nc4c3F)c12 (stereo not shown) [Compound 200] |  | 0.1 to 1 |  |  | > 1 |
| C#Cc1c(F)ccc2cc(O)cc(-c3ncc4c(N5CC6CCC(C5)N6)nc(OCC5(CN6CC(N7CCN(Cc8ccc9c(c8)CN(C(=O)c8cc(C(C)C)c(O)cc8O)C9)CC7)C6)CC5)nc4c3F)c12 [Compound 202] |  | 0.1 to 1 |  |  | 0.1 to 1 |
| C#Cc1c(F)ccc2cc(O)cc(-c3ncc4c(N5CC6CCC(C5)N6)nc(OCC5(CN6CC(N7CCN(Cc8ccc(-n9c(C(=O)NC(C)C(F)(F)F)nnc9-c9cc(C(C)C)c(O)cc9O)cc8)CC7)C6)CC5)nc4c3F)c12 (stereo not shown) [Compound 203] |  |  |  |  | < 0.1 |
| C#Cc1c(F)ccc2cc(O)cc(-c3ncc4c(N5CC6CCC(C5)N6)nc(OC[C@H]5CCCN5Cc5ccc6c(c5)CN(C(=O)c5cc(C(C)C)c(O)cc5O)C6)nc4c3F)c12 [Compound 204] |  | 0.1 to 1 |  |  | > 1 |
